Measurements: patent US20230181580A1, “TREATMENT OF PROLIFERATIVE DISEASES OF THE CNS” (AUCENTRA THERAPEUTICS PTY LTD, priority 2020, published 2023)

What was measured:
[1] = molecular target: CDK7/H (Homo sapiens, UniProt P50613); test: CDK kinase inhibition assay (radiometric / ADP Glo); assay type: biochemical
Experimental: (§1) Eurofins Pharma Discovery or Reaction Biology Corporation Kinase Profiler services were used to measure inhibition of CDKs and other kinases by radiometric assay (RIA). Inhibition of CDK4/Cyclin D1, CDK6/Cyclin D3 and CDK9/T1 were also determined in-house using ADP Glo Kinase assays (Promega Corporation, Madison Wis., United States of America). Briefly, the kinase reaction for CDK4/Cyclin D1 and CDK6/Cyclin D3 was performed with kinase reaction buffer ([…] Tris base pH 7.5, 20 mM MgCl2, 0.4 mM DTT), 0.1 mg/ml BSA and RB-CTF substrate (retinoblastoma protein1 C-terminal fraction). For CDK9/CyclinT1, the kinase reaction was performed with standard assay buffer and Kinase Dilution Buffer and RBER-IRStide substrate. Serial dilutions of 1:3 were prepared for test compounds for 10 concentrations (from 10 μM to 0.5 nM). The kinase reactions were started by addition of ATP, incubated for 40 min at 37° C. and then stopped by adding 10 μL of ADP Glo reagent. After incubation at room temperature (RT) in the dark for 40 min, 20 μL of kinase detection reagent was added per well and incubated for 40 min. Luminescence was measured using an EnVision Multilabel plate reader (PerkinElmer, Buckinghamshire, United Kingdom). Positive and negative controls were performed in the presence and absence of CDK kinases, respectively. Half-maximal inhibition (IC50) values were calculated using a 4-parameter logistic non-linear regression model with Graphpad prism (Version 6.0). Apparent inhibition constants (Ki) values were calculated from Km (ATP) and IC50 values for the respective kinases.

[2] = molecular target: CDK2/A (Homo sapiens, UniProt P24941); test: as above; assay type: biochemical
Experimental: as §1

[3] = molecular target: CDK6/D3 (Homo sapiens, UniProt Q00534); test: as above; assay type: biochemical
Experimental: as §1

[4] = molecular target: CDK4/D1 (Homo sapiens, UniProt P11802); test: as above; assay type: biochemical
Experimental: as §1

[5] = molecular target: CDK1/B (Homo sapiens, UniProt P06493); test: as above; assay type: biochemical
Experimental: as §1

[6] = molecular target: CDK9/T1 (Homo sapiens, UniProt P50750); test: as above; assay type: biochemical
Experimental: as §1

[7] = tested on: MV4-11; test: Resazurin proliferation assay, leukaemia cell line; assay type: cell-based; conditions: Homo sapiens, 72 h, read-out: Antiproliferative activity GI50 MV4-11
From the text: (§2) Representative compounds from Example 1, were subjected to standard MTT (3-(4,5-dimethylthiazol-2-yl)-2,5-diphenyltetrazolium bromide) and resazurin assays on solid tumour cell lines (including GBM cell lines) and leukemia cell lines, respectively, as previously reported (Wang S et al., J Med Chem 47:1662-1675, 2004; and Diab S. et al. CheMedChem 9:962-972, 2014).

[8] = tested on: Colo205; test: MTT proliferation assay, colorectal; assay type: cell-based; conditions: Homo sapiens, COLO 205, 72 h, read-out: Antiproliferative activity GI50 Colo205
From the text: as §2

[9] = tested on: MB453; test: MTT proliferation assay, breast; assay type: cell-based; conditions: 72 h, read-out: Antiproliferative activity GI50 MB453
From the text: as §2

[10] = tested on: U87 xenografted mice; test: Subcutaneous U87 xenograft, compound 2 and TMZ study; assay type: in vivo; conditions: 25 mg/kg PO daily, single agent and with TMZ
From the text: (§3) Compound 1 and compound 2 were also investigated for in vivo antitumour activity in subcutaneous xenograft models. Briefly, U87 GBM cells were harvested and resuspended in a 1:1 mixture of serum-free media and matrigel, and 5×10^6 cells injected subcutaneously into the rear flank of 5-6-week-old CD1 nu/nu female mice. When the mean tumour volume reached 150-200 mm^3, animals were randomised to treatment groups (n=10 per group) and treated orally with vehicle (0.5% carboxymethyl cellulose in water), compound 1 or compound 2 daily for 21 days with the doses shown in FIGS. 5A and 5B. Mice were observed daily for signs of toxicity and weight loss, and tumour volume measured every other day.
In another study, U87 xenografted mice (n=8 per group) were treated with: (1) vehicle, (2) compound 2 (25 mg/kg, PO, daily), (3 and 4) TMZ (5 mg/kg or 50 mg/kg, PO, 5 day/week), (5) pre-treatment with compound 2 (25 mg/kg, PO, daily ×10), followed by TMZ (5 mg/kg, PO, 5 day/week ×2), (6) pre-treatment with TMZ (5 mg/kg, PO, 5 day/week ×2) followed by compound 2 (25 mg/kg, PO, daily ×10), and (7) co-treatment with compound 2 and TMZ, respectively. All treatment groups were completed by day 21, which were followed by a 7-day drug holiday before the second cycle of treatment started from day 29 (FIG. 5B).

[11] = tested on: PANC1; test: MTT proliferation assay, pancreas; assay type: cell-based; conditions: Homo sapiens, PANC-1, 72 h, read-out: Antiproliferative activity GI50 PANC1
From the text: as §2

[12] = tested on: LNCap; test: MTT proliferation assay, prostate; assay type: cell-based; conditions: Homo sapiens, 72 h, read-out: Antiproliferative activity GI50 LNCap
From the text: as §2

[13] = tested on: H460; test: MTT proliferation assay, lung; assay type: cell-based; conditions: Homo sapiens, NCI-H460, 72 h, read-out: Antiproliferative activity GI50 H460
From the text: as §2

[14] = tested on: T98G; test: MTT proliferation assay, glioblastoma; assay type: cell-based; conditions: Homo sapiens, 72 h, read-out: Antiproliferative activity GI50 T98G
Experimental: (§4) All three GBM cell lines used in this example, namely U87, U251 and T98G, were cultured in Eagle's Minimum Essential Medium (EMEM) with 10% fetal bovine serum in 75 cm^2 flasks at 37° C. and 5% CO2. All cell lines were confirmed to be mycoplasma-free prior to any experiment setup.
as §2

[15] = tested on: U87; test: MTT proliferation assay, glioblastoma; assay type: cell-based; conditions: Homo sapiens, U-87 MG, 72 h, read-out: Antiproliferative activity GI50 U87
Experimental: as §4, §2

[16] = tested on: U251; test: MTT proliferation assay, glioblastoma; assay type: cell-based; conditions: Homo sapiens, U-251, 72 h, read-out: Antiproliferative activity GI50 U251
Experimental: as §4, §2

[17] = tested on: U87 GBM cells; test: Subcutaneous U87 GBM xenograft, single agents; assay type: in vivo
From the text: as §3

[18] = tested on: M229; test: MTT proliferation assay, melanoma; assay type: cell-based; conditions: 72 h, read-out: Antiproliferative activity GI50 M229
From the text: as §2

[19] = tested on: A2780; test: MTT proliferation assay, ovarian; assay type: cell-based; conditions: Homo sapiens, 72 h, read-out: Antiproliferative activity GI50 A2780
From the text: as §2

[20] = tested on: U87 GBM cells; test: Orthotopic U87 GBM xenograft; assay type: in vivo, NSG mice
Experimental: In vivo anti-tumour efficacy of compound 1 and compound 2 was also investigated in GBM orthotopic mouse xenograft models. For example, compound 2 was administered orally once daily for 21 days to NSG mice (n=8) (The Jackson Laboratory, Ben Harbor, Me., United States of America) orthotopically engrafted with the U87 GBM cells per each treatment cohort. TMZ was given orally once daily for 5 days and was used as a positive control. The disease burden was measured by a non-invasive bioluminescent whole-body imaging technique.

CDK9/T1, sequence (P50750 whole entry): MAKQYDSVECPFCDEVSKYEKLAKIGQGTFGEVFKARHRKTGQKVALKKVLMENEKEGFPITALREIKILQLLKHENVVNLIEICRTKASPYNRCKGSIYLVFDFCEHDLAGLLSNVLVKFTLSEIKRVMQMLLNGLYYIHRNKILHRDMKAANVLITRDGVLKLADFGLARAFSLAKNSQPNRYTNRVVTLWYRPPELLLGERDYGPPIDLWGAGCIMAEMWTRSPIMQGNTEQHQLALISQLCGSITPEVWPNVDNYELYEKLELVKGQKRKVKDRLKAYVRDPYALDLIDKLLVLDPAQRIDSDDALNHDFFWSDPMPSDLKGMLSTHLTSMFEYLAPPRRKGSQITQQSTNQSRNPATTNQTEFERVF
CDK9/T1, sequence (O60563 whole entry partner): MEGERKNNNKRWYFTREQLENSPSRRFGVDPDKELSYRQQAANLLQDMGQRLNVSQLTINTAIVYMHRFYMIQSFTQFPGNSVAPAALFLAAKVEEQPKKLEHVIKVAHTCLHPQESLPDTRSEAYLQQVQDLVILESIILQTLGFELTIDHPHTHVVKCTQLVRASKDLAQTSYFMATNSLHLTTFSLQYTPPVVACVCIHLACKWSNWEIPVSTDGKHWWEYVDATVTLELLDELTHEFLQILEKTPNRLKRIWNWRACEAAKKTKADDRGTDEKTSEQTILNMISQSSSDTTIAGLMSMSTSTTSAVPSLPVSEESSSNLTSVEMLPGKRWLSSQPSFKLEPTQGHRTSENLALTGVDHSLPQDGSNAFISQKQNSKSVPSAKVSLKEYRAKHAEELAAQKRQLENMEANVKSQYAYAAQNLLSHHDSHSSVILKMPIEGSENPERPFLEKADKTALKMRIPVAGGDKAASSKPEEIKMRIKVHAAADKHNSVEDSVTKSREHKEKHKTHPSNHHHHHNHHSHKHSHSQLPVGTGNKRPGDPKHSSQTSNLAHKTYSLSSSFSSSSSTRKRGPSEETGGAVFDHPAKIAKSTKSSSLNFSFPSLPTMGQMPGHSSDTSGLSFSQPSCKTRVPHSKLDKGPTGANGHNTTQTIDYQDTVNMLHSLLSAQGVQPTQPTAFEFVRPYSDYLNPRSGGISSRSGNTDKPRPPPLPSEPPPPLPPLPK
CDK4/D1, sequence (P11802 whole entry): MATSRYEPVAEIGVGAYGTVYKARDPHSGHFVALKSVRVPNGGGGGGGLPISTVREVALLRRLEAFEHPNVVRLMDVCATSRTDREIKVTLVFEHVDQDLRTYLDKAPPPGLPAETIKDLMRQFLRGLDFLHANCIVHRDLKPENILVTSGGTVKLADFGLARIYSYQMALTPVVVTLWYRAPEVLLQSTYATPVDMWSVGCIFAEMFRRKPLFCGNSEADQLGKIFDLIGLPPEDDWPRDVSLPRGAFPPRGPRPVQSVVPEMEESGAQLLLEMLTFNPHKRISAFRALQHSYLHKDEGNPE
CDK4/D1, sequence (P24385 whole entry partner): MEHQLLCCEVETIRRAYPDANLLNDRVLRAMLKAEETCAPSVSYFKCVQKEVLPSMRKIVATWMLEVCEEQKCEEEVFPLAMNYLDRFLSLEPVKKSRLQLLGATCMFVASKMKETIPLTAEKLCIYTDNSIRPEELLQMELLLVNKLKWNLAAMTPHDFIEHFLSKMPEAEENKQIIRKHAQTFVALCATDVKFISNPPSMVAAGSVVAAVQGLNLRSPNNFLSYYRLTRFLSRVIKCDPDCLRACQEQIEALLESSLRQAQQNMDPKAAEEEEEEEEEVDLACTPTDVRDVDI
CDK6/D3, sequence (Q00534 whole entry): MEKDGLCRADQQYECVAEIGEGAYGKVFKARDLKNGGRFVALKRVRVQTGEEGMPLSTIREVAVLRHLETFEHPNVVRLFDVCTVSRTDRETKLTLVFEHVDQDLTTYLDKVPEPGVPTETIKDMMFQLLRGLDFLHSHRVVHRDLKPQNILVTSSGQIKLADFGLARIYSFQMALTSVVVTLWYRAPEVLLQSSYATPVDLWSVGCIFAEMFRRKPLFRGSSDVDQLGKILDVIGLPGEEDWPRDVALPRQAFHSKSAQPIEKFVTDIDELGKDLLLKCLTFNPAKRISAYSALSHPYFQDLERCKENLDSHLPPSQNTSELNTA
CDK6/D3, sequence (P30281 whole entry partner): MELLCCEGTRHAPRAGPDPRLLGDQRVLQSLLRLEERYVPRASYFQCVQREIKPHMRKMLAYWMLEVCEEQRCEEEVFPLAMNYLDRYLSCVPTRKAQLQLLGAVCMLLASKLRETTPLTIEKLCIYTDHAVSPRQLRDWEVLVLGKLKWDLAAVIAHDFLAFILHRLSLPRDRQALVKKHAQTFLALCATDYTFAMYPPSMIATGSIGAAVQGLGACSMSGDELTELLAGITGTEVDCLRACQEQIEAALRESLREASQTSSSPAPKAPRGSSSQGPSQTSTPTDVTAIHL
CDK7/H, sequence (P50613 whole entry): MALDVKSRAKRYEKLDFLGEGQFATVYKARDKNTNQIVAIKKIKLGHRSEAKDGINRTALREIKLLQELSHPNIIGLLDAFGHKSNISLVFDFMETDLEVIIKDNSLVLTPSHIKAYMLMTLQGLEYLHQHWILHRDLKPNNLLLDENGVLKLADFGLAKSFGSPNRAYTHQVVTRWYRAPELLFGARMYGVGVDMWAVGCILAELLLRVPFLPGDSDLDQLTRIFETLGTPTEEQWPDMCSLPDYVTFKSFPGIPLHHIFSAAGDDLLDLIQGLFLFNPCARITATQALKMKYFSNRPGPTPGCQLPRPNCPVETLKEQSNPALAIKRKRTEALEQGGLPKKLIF
CDK7/H, sequence (P51946 whole entry partner): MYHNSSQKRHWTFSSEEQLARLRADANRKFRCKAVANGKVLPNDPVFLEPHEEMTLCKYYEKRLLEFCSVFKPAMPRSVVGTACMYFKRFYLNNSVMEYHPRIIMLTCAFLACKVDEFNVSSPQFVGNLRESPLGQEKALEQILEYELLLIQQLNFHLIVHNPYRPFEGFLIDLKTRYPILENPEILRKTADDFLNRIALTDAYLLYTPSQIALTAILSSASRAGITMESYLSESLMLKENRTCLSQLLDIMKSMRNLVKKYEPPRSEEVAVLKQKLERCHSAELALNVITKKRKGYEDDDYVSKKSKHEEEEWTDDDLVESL
CDK7/H, sequence (P51948 whole entry partner): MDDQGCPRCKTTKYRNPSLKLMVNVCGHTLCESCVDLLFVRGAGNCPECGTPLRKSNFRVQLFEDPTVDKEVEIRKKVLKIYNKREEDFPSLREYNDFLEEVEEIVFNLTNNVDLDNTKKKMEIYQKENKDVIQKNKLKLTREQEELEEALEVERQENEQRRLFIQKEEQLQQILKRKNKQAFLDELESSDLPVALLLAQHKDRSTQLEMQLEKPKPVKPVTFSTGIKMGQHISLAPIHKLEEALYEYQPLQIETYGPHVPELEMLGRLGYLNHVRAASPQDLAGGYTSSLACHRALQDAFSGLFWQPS
CDK1/B, sequence (P06493 whole entry): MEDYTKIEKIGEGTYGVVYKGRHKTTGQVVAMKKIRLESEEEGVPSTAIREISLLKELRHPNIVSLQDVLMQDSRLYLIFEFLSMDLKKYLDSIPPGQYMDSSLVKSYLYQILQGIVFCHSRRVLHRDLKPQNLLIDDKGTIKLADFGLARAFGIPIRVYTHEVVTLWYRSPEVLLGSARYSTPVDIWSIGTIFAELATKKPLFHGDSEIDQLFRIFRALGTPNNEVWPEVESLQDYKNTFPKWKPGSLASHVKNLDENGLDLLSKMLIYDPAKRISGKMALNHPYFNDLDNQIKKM
CDK1/B, sequence (P14635 whole entry partner): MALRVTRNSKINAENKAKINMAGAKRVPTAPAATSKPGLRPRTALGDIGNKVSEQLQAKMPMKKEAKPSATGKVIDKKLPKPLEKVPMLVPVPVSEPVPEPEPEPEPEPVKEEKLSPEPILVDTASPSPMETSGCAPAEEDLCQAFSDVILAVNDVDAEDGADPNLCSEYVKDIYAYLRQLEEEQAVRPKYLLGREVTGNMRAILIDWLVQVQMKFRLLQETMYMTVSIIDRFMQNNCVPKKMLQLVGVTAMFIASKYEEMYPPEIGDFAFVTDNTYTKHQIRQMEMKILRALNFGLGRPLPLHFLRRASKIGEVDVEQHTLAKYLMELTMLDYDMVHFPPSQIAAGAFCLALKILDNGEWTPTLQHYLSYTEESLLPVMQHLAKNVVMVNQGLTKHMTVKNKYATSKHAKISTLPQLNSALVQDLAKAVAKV

| Structure (SMILES) | Ki [1] [nM] | Ki [2] [nM] | Ki [3] [nM] | Ki [4] [nM] | Ki [5] [nM] | Ki [6] [nM] | GI50 [7] [nM] | GI50 [9] [nM] | further results |
| --- | --- | --- | --- | --- | --- | --- | --- | --- | --- |
| CCN1CCN(Cc2ccc(Nc3nccc(-c4sc(NC5CCCC5)nc4C)n3)nc2)CC1 [Compound 6, N-cyclopentyl-5-(2-((5-((4-ethylpiperazin-1-yl)methyl)pyridin-2-yl)amino)pyrimidin-4-yl)-4-methylthiazol-2-amine] | 630 | 416 | 9 | 6 | > 1000 | > 1000 | 20 | 70 | GI50 [8]: 4380 nM |
| CNc1nc(C)c(-c2nc(Nc3ccc(N4CCC(N)CC4)cn3)ncc2F)s1 [Compound 7, 5-(2-((5-(4-aminopiperidin-1-yl)pyridin-2-yl)amino)-5-fluoropyrimidin-4-yl)-N,4-dimethylthiazol-2-amine] | > 1000 | 206 | 32 | 3 | > 1000 | > 1000 | 80 | 360 |  |
| CNc1nc(C)c(-c2nc(Nc3ccc(N4CCN(C(C)=O)CC4)cn3)ncc2C#N)s1 [Compound 5, 2-((5-(4-acetylpiperazin-1-yl)pyridin-2-yl)amino)-4-(4-methyl-2-(methylamino)thiazol-5-yl)pyrimidine-5-carbonitrile] | > 1000 | > 1000 | 30 | 4 | > 1000 | > 1000 | 170 | 810 |  |
| Cc1nc(NC2CCCC2)sc1-c1ccnc(Nc2ccc(N3CCC(N)CC3)cn2)n1 [Compound 8, 5-(2-((5-(4-aminopiperidin-1-yl)pyridin-2-yl)amino)pyrimidin-4-yl)-N-cyclopentyl-4-methylthiazol-2-amine] | 282 | 278 | 8 | 1 | > 1000 | 508 | 30 | 100 |  |
| Cc1nc(NC2CCCC2)sc1-c1nc(Nc2ccc(N3CCOCC3)cn2)ncc1F [Compound 9, N-cyclopentyl-5-(5-fluoro-2-((5-morpholinopyridin-2-yl)amino)pyrimidin-4-yl)-4-methylthiazol-2-amine] | > 1000 | 104 | 20 | 6 | > 1000 | > 1000 | 290 | 1450 |  |
| Cc1nc(NC2CCCC2)sc1-c1ccnc(Nc2ccc(N3CCNCC3)cn2)n1 [Compound 3, N-cyclopentyl-4-methyl-5-(2-((5-(piperazin-1-yl)pyridin-2-yl)amino)pyrimidin-4-yl)thiazol-2-amine] | > 1000 | > 1000 | 34 | 1 | > 1000 | 220 | 20 | 70 |  |
| CCN1CCN(c2ccc(Nc3nccc(-c4sc(NC5CCCC5)nc4C)n3)nc2)CC1 [Compound 4, N-cyclopentyl-5-(2-((5-(4-ethylpiperazin-1-yl)pyridin-2-yl)amino)pyrimidin-4-yl)-4-methylthiazol-2-amine] |  | 355 | 11 | 2 | > 1000 | 141 | 10 | 290 |  |
| CCN1CCN(Cc2ccc(Nc3ncc(F)c(-c4sc(NC5CCCC5)nc4C)n3)nc2)CC1 [Compound 2, N-cyclopentyl-5-(2-((5-((4-ethylpiperazin-1-yl)methyl)pyridin-2-yl)amino)-5-fluoropyrimidin-4-yl)-4-methylthiazol-2-amine] |  | 620 | 3 | 0.2 | > 1000 | > 1000 | 10 | 620 | toxicity [10]: without any overt toxicity; anti-tumour efficacy ([10]; p<0.001 vs vehicle): significant anti-tumour efficacy both as a single agent and in combination with TMZ; GI50 [11]: 1210 nM; GI50 [12]: 280 nM; GI50 [13]: 410 nM; GI50 [8]: 1550 nM; GI50 [14]: 4180 nM; GI50 [15]: 2170 nM; GI50 [16]: 5090 nM; T/C ([17]; day 21, oral daily for 21 days, vs vehicle, p<0.001): 6%; tumour growth compared to vehicle treatment ([17]; oral daily for 21 days): markedly reduced tumour growth; toxicity ([17]; oral daily for 21 days, observed daily for signs of toxicity and weight loss): without any overt toxicity; GI50 [18]: 830 nM; GI50 [19]: 40 nM; inhibition in tumour growth (TGI) ([20]; day 21, oral once daily for 21 days, vs vehicle, p<0.001): 81.4%; increase in life span ratio (ILS) ([20]; vs vehicle control, ILS=(DaysT−DaysC)/DaysC): 154.8% |
